Converted amounts (≈) assume the structure as drawn. “Also recorded” adds a separate entry of the source. Where two headings read alike, the source gives them in different places.
What was measured:
M. tuberculosis = assay: microbe, parasite or virus in culture; assay type: cell-based; conditions: Mycobacterium tuberculosis, read-out: MIC on solid medium
[1] = test system: wild-type M. tuberculosis; assay: microbe, parasite or virus in culture; assay type: cell-based, Mycobacterium tuberculosis; conditions: for MIC / IC90: Mycobacterium tuberculosis
in vitro [2] = assay type: in vitro ADME, human; conditions: for CLint scaled at 0.5 µM: human, microsomes
Protocol: (§1) Compounds (0.5 µM) were incubated with 0.25 mg/mL liver microsomal proteins at pH 7.4 at 37 °C. Reactions were initiated with […] and samples taken at 0, 5, 10, 15, 20 and 30 min. The reaction was stopped by addition of 95% ACN/5% MeOH containing an internal standard. Samples were combined in compound groups of six pre-sorted by mono molecular weight and analyzed by LC/MS/MS. The peak area ratios (analyte peak area/IS peak area) were converted to % remaining using the area ratio at time 0 as 100%. The. half-life (T ½) and intrinsic clearance (mCLint) were calculated.

in vitro [3] = assay type: cell-based; conditions: human
Protocol: HepG2 cells were seeded at 2000 cells per well in 384-well, black, clear bottom PDL coated plates in MEM medium supplemented with 10% FBS, 2 mM L-glutamine, 1 mM sodium pyruvate and incubated overnight at 37C, 5% CO2. Compounds were added and plates incubated for 72 h. Cell viability was measured using the CyQUANT® reagent and imaging on a ViewLux™ ultraHTS Microplate Imager. The IC20 and IC50 were calculated from dose response curves.

M. tuberculosis H37Rv = assay: microbe, parasite or virus in culture; assay type: cell-based; conditions: Mycobacterium tuberculosis, 120 h
in vitro [4] = conditions: PAMPA
[5] = mouse, in vivo
in vitro [6] = assay type: in vitro ADME; conditions: mouse, microsomes, pH 7.4
Protocol: as §1

[7] = Critical aggregation concentration; assay type: physicochemical
in vivo = conditions: female, Balb/c, mouse; for AUC: po, 30 mg/kg
[8] = Table 5, read-out: Wild-type MIC

Compound	MIC ([1]; 120 h, read-out: MIC)	CLint scaled at 0.5 µM (in vitro [2]; pH 7.4, human Clint)	IC20 at 72 h (in vitro [3])	inhibition at 20 µM (M. tuberculosis H37Rv; read-out: % Inhibition Run 1)	inhibition at 20 µM (M. tuberculosis H37Rv; read-out: % Inhibition Run 2)	MIC ([1]; read-out: MTB MIC)	further results
O=C(O)C(F)(F)F.c1cc(C2CCN(CC3CCCCC3)CC2)ccn1 [Molecule 4PP-32, 4-[1-(Cyclohexylmethyl)-4-piperidyl]pyridine, 2,2,2-trifluoroacetic acid salt]	> 20 µM						MIC (M. tuberculosis): 1.6 µM; anti-tubercular activity (in words) [1]: inactive
COc1ccc(CCNC(=O)C2(c3ccccc3)CCC2)cc1Br [PCB-1, N-(3-bromo-4-methoxyphenethyl)-1-phenylcyclobutane-1-carboxamide]	6.9 ± 1.7 µM (≈ 2.68 µg/mL)	1330 mL/min/kg	33 µM	100%	100%	6.9 µM (≈ 2.68 µg/mL)	MIC ([1]; read-out: MIC): 6.9 µM (≈ 2.68 µg/mL)
O=C(NCCc1cc(Br)c(O)c(Br)c1)C1(c2ccccc2)CCC1 [PCB-2, N-(3,5-dibromo-4-hydroxyphenethyl)-1-phenylcyclobutane-1-carboxamide]	3.4 ± 0.6 µM (≈ 1.54 µg/mL)	427 mL/min/kg					Papp (in vitro [4]): 87 ×10⁻⁶ cm/s; CLint scaled at 0.5 µM (in vitro [2]; pH 7.4, in vitro human unbound microsomal clearance Clint,u): 593 mL/min/kg; Oral AUC ([5]; female, Balb/c, po, 30 mg/kg): 58 ng·h/mL; CLint scaled at 0.5 µM (in vitro [6]): 1920 mL/min/kg; critical aggregation concentration [7]: 3.3 µM; AUC (in vivo): 58 ng·h/mL; MIC ([1]; read-out: MIC): 3.4 µM (≈ 1.54 µg/mL)
O=C(NCCc1cccc(Br)c1)C1(c2ccc(F)cc2)CCC1 [PCB-19, N-(3-bromophenethyl)-1-(4-fluorophenyl)cyclobutane-1-carboxamide]	2.3 ± 0.7 µM (≈ 0.865 µg/mL)	3920 mL/min/kg					microsomal clearance / stability (in words) (in vitro [2]; human microsomes): very poor microsomal stability; MIC (M. tuberculosis): 0.63 µM (≈ 0.237 µg/mL); MIC [1, 8]: 2.3 µM (≈ 0.865 µg/mL)
O=C(NCCc1cccc(Br)c1)C1(c2ccccc2Br)CCC1 [PCB-21, N-(3-bromophenethyl)-1-(2-bromophenyl)cyclobutane-1-carboxamide]	2 ± 0.5 µM (≈ 0.874 µg/mL)	13600 mL/min/kg					MIC (M. tuberculosis): 1.25 µM (≈ 0.546 µg/mL); MIC [1, 8]: 2 µM (≈ 0.874 µg/mL)
O=C(NCCc1cc(Br)c(O)c(Br)c1)C1(c2ccc(F)cc2)CCC1 [PCB-31, N-(3,5-dibromo-4-hydroxyphenethyl)-1-(4-fluorophenyl)cyclobutane-1-carboxamide]	0.94 ± 0.23 µM (≈ 0.443 µg/mL)	128 mL/min/kg					absorption (in words) [5]: solubility-limited absorption; CLint scaled at 0.5 µM (in vitro [6]): 527 mL/min/kg; half-life (in vivo; iv): 12 min; AUC (in vivo): 259 ng·h/mL; anti-tubercular activity (in words) [1]: good anti-TB activity; also recorded: sub-micromolar
Cc1nc2ccccn2c1-c1ccn(Cc2ccccc2)n1 [PPP-1]			4.3 µM	100%	98%	38 µM (≈ 11 µg/mL)	
CC(C)c1ccc(-n2nnn(C(=O)N(C)C3CCOCC3)c2=O)cc1Cl [PTZ-3]				96%	6%	5.2 µM (≈ 1.98 µg/mL)	IC20 (in vitro [3]; concentration for 20% inhibition of HepG2 cells, 72 h, n = 2): 26 µM
Cc1ccc(-c2nnc(C)c(N3CCCC3)n2)cc1 [PYT]			23 µM	100%	98%	11 µM (≈ 2.8 µg/mL)	IC90 [1]: 11 µM
CN(Cc1cn2c3ccccc3n(C)c2n1)C12CC3CC(CC(C3)C1)C2 [PZI]			15 µM	98%	98%	9.3 µM (≈ 3.24 µg/mL)	
Cc1cc(NC2CCCCC2)nc(-n2nc(C)cc2C)n1 [PZP-3]			47 µM	98%	98%	4.5 µM (≈ 1.28 µg/mL)	IC90 [1]: 4.5 µM
CC(=O)n1nccc1-c1sc(-c2cccs2)nc1C [TPT]			> 80 µM	99%	99%	7.1 µM (≈ 2.05 µg/mL)	IC90 [1]: 7.1 µM
CCOC(=O)c1oc2c(c1C)-c1nc(C)sc1CC2 [TZF]			> 80 µM	99%	99%	18 µM (≈ 4.99 µg/mL)	
